Patent publication US20020006942A1, “Methods of treating liver disorders and disorders associated with liver function” (priority 2000, published 2002)
Values belong to the molecule of their own block, whether it stands above or below them.

Tests used:
[1] = test system: cytokine mRNAs (TNFα, TGF-β1, IL1β) in THP-1 cells; assay: Cytokine mRNA expression by THP-1 cells (RNase protection assay); type: cell-based, human; settings: 100 μM, 48 h
Source text: Hepatic cytokine mRNAs were quantitated using RNase protection assays, as follows. In vitro transcribed [α-^32P]-UTP labeled -antisense cytokine probes were generated using cytokine multi-probe template kits: Mouse mCK-2 (catalog # 45002P) and Mouse mCK-3 (catalog #45003P) (PharMingen International) and a MAXIscript in vitro transcription kit (catalog #1314) using T7 RNA polymerase per manufacturer instructions. The radiolabeled probes were eluted through G25 Sephadex columns (Boehringer Mannheim) to remove unincorporated nucleotides. RNase protection assays were performed with HybSpeed RPA kits (catalog #1412) (Ambion Inc.) according to the manufacturers specifications. For each reaction, 20 fig of total RNA was hybridized to approximately 50,000 cpm of the antisense cytokine probes and digested with a mixture of RNase A and RNase T1. The protected RNA fragments were separated via a 5% denaturing acrylamide gel. PhosporImager (Molecular Dynamics) analysis was used to visualize the protected RNA fragments. […] Cells were harvested and polyA mRNA extracted, as described above. The content of human cytokines mRNAs were quantited by RNase protection assays, as described above except human template kits were used (Human hCK-2-catalog # 45032P and Human hCK-3-catalog # 45033P) (PharMingen International).

[2] = test system: CYP7A1 mRNA expression by rat hepatoma L35 cells; assay: Direct treatment of L35 cells, CYP7A1 mRNA relative to β-actin; type: cell-based
[3] = test system: CYP7A1; settings: bile acid infused; Heuman et al., 1989; cited from earlier work
[4] = test system: hepatic CYP7A1 mRNA; assay: Hepatic CYP7A1 mRNA relative to GAPDH in C57BL/6 mice on chow or bile acid-containing atherogenic diet; type: in vivo, mouse; settings: chow-fed mice, 1 mg/ml daily by oral gavage, p=ns
Source text: Female C3H/HeJ and [MUT] mice 10-12 weeks old (Jackson Laboratory, Bar Harbor, Me.) were housed in a room with a normal light cycle (lights on from 0600 to 1800) fed water ad libitum with either normal Purina breeder chow or ground Purina breeder chow supplemented with 20% olive oil, 2% cholesterol and 0.5% taurocholic acid (bile acid-contaning atherogenic diet) and water ad libitum. Mice were maintained on this diet for 3 weeks. After 3 weeks, mice were sacrificed at 0900. […] Mice were sacrificed at 0900 and blood was obtained for subsequent analysis. Livers were extracted for RNA, and polyA RNA was isolated, as described (Dueland, et al., 1993, J. Lipid.Res. 34:923-931; Dueland, et al., 1997, J. Lipid Res. 38:1445-1453). Poly A MRNA was blotted onto nitrocellulose and probed with ^32P-labeled cDNA encoding rat CYP7A1 and GAPDH (Duelandet al., 1993, J. Lipid Res. 34:923-931; Dueland, et al., 1997, J. Lipid Res. 38:1445-1453). The relative abundance of CYP7A1 mRNA to GAPDH mRNA was determined using Phosphorimager quantitation (Molecular Biosystems).

CYP7A1 expression by L35 cells ([2]; CDCA 100 μM added directly to L35 cells, 24 hours): unaffected
Molecule: C[C@H](CCC(=O)O)[C@H]1CC[C@H]2[C@@H]3[C@H](O)C[C@@H]4C[C@H](O)CC[C@]4(C)[C@H]3CC[C@]12C [CDCA, chenodeoxycholic acid]
induction of TNFα, TGF-β1 and IL1β mRNAs by THP-1 cells [1]: > 10 fold
ability to repress CYP7A1 [3]: potent repressor

Molecule: C[C@H](CCC(=O)O)[C@H]1CC[C@H]2[C@@H]3[C@@H](O)C[C@@H]4C[C@H](O)CC[C@]4(C)[C@H]3CC[C@]12C [UDCA, ursodeoxycholic acid]
ability to repress CYP7A1 [3]: does not repress

Molecule: CN(CCOc1ccc(CC2SC(=O)NC2=O)cc1)c1ccccn1 (stereo not drawn) [rosiglitazone]
decrease in the expression of CYP7A1 [4]: 30%

expression of CYP7A1 by L35 cells ([2]; human TNFa alone, 24 h): repressed
Molecule: TNFa
